Here are results for two molecules from paper PMC11801715, “Activating PKC-ε induces HIV expression with improved tolerability” (PLOS Pathogens, 2025).

Series [1] relates to platelets (CD62P+) and CD4+ T cells (CD69+) in whole blood. Description: In vitro whole blood platelet and CD4+ T-cell activation assay. The settings on record: whole blood from healthy donors; platelets to CD4+ T cells. The series is classed as cell-based, human. As for the experimental part: We developed a novel human whole blood assay to determine whether other PKC agonists also activate platelets at the same concentrations that are required to activate CD4^+ T cells. Platelet activation was assessed by CD62P (P-selectin), which traffics to the cell surface upon activation and α-granule release. CD4^+ T-cell activation was assessed by CD69 upregulation (Fig 7A).
Whole blood was drawn into sodium citrate tubes using a 21-gauge needle. To prevent potential interference from tissue thromboplastin released during venipuncture, which could affect the accuracy of coagulation testing, the first 2 mL of blood drawn was discarded. PKC agonist molecules were dispensed in a dilution series into 80 μL of blood per well in a flat-bottom 96-well plate and mixed gently. Care was taken not to introduce any mechanical stress-related activation of platelets. […] The remaining 72 μL of blood in the first plate was incubated for 1 additional hour and stained with anti-human CD3 (UCHT1), CD4 (SK3), and CD69 (FN50) (30 minutes in the dark). Red blood cell lysis and fixing was done using BD lyse/fix solution. Stained cells were acquired on BD LSR Fortessa II after washing. […] EC50 values for platelet and CD4 T-cell activation for each agonist was obtained by nonlinear regression curve fit using GraphPad Prism version 9.3.0.

For series [2] the following is noted: cited from earlier work.
Another series has as its target PKC-α (Homo sapiens, UniProt P17252). Description: Z'-LYTE kinase activity assay. As to conditions: ATP at Kmapp, 2 μM peptide substrate; read-out: IC50 for classical PKC isoforms, PKC-α. Format: biochemical. From the text: (§1) In this assay, phosphorylation of a synthetic FRET-peptide substrate protects the peptide from cleavage by the development reagent and prevents disruption of the FRET signal.

For another series, the target named is PKC-β1 (Homo sapiens, UniProt P05771). The series can be described thus: Z'-LYTE kinase activity assay. Format: biochemical. As to conditions: ATP at Kmapp, 2 μM peptide substrate; read-out: IC50 for classical PKC isoforms, PKC-β1.
PKC-β1, sequence (P05771 whole entry, canonical isoform): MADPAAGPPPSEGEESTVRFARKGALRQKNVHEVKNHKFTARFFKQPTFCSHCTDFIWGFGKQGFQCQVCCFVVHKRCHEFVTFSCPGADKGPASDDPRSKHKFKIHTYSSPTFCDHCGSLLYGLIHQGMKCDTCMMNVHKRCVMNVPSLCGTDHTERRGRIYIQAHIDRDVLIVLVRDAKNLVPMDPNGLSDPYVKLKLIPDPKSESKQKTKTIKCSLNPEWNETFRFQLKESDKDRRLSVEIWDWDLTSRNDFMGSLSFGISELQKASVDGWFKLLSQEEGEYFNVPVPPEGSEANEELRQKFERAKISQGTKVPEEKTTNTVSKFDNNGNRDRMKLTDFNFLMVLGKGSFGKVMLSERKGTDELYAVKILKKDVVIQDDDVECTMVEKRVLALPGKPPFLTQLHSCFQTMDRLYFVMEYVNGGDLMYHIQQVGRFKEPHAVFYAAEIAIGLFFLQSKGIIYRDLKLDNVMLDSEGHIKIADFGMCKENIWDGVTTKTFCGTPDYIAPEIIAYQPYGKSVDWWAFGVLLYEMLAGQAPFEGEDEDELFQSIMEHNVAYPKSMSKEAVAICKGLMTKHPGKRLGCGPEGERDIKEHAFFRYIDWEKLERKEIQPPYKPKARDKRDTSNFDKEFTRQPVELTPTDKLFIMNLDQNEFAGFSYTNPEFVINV
From the text: as §1

For a further series, the target named is PKC-β2 (Homo sapiens, UniProt P05771). Description: Z'-LYTE kinase activity assay. As to conditions: ATP at Kmapp, 2 μM peptide substrate; read-out: IC50 for classical PKC isoforms, PKC-β2. The series is classed as biochemical.
PKC-β2, sequence (P05771 1-673 isoform P05771-2): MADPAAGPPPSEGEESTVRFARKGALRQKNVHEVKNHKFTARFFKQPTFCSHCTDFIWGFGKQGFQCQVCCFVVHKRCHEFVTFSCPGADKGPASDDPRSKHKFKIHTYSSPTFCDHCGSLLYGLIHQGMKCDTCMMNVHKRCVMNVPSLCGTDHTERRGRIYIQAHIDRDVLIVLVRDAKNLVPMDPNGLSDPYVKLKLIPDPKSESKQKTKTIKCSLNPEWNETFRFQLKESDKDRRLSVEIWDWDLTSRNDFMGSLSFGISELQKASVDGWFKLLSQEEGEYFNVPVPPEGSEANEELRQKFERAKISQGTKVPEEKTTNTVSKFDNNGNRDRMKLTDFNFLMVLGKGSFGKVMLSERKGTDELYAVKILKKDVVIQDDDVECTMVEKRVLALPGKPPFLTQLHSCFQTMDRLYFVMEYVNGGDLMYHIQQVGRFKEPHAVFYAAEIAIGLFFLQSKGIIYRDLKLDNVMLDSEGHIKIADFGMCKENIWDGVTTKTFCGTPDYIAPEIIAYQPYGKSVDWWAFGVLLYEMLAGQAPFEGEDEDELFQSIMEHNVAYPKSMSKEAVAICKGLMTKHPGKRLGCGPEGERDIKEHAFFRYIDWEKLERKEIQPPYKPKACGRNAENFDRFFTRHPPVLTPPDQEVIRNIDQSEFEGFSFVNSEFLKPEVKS
From the text: as §1

Another series concerns the target PKC-γ (Homo sapiens, UniProt P05129). The series can be described thus: Z'-LYTE kinase activity assay. Format: biochemical. The settings on record: ATP at Kmapp, 2 μM peptide substrate; read-out: IC50 for classical PKC isoforms, PKC-γ.
From the text: as §1

The target of a further series is PKC-δ (Homo sapiens, UniProt Q05655). Description: Z'-LYTE kinase activity assay. As to conditions: ATP at Kmapp, 2 μM peptide substrate; read-out: IC50 for novel PKC isoforms, PKC-δ. The series is classed as biochemical.
PKC-δ, sequence (Q05655 whole entry, canonical isoform): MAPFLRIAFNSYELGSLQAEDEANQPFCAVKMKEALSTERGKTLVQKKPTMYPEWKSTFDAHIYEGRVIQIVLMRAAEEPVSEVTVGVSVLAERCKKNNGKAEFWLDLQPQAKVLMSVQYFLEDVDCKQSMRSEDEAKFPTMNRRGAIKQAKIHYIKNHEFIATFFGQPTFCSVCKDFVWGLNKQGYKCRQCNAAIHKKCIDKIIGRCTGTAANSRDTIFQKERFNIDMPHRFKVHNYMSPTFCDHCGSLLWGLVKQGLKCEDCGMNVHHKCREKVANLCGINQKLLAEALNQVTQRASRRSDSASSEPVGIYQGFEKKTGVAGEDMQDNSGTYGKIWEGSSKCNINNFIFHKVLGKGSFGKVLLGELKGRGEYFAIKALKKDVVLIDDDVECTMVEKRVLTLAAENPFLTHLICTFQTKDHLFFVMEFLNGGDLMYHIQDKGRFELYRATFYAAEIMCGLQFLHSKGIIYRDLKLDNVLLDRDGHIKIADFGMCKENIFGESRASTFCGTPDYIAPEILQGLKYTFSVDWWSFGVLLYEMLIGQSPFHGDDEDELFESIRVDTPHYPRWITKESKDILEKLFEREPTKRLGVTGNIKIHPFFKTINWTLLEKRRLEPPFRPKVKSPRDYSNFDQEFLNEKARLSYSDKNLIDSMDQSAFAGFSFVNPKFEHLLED
From the text: as §1

A further series deals with T1, PKC-ε (Homo sapiens, UniProt Q02156).
T1 sequence (Q02156 1-737): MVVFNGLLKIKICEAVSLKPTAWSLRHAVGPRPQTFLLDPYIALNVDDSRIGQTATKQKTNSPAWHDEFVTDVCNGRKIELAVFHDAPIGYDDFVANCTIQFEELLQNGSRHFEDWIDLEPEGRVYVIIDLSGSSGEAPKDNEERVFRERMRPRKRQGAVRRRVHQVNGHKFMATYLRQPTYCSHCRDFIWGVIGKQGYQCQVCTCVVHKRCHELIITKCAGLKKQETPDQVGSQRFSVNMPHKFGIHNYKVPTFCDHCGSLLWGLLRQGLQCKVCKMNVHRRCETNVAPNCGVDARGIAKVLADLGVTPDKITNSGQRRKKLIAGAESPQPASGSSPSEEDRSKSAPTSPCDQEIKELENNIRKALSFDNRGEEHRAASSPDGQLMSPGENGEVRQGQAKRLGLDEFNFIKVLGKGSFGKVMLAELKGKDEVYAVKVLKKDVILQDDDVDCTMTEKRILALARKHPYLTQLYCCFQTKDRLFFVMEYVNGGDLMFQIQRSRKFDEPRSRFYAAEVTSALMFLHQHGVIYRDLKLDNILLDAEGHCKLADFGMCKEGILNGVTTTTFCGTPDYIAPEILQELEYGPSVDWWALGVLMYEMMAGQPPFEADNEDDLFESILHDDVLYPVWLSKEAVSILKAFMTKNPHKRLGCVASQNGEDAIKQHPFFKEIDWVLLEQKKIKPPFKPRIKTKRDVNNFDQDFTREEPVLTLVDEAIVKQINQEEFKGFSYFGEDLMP
The series can be described thus: Z'-LYTE kinase activity assay. Format: biochemical.
From the text: as §1

In the next series the target is PKC-η (Homo sapiens, UniProt P24723). The series can be described thus: Z'-LYTE kinase activity assay. The series is classed as biochemical. As to conditions: ATP at Kmapp, 2 μM peptide substrate; read-out: IC50 for novel PKC isoforms, PKC-η.
PKC-η, sequence (P24723 whole entry, canonical isoform): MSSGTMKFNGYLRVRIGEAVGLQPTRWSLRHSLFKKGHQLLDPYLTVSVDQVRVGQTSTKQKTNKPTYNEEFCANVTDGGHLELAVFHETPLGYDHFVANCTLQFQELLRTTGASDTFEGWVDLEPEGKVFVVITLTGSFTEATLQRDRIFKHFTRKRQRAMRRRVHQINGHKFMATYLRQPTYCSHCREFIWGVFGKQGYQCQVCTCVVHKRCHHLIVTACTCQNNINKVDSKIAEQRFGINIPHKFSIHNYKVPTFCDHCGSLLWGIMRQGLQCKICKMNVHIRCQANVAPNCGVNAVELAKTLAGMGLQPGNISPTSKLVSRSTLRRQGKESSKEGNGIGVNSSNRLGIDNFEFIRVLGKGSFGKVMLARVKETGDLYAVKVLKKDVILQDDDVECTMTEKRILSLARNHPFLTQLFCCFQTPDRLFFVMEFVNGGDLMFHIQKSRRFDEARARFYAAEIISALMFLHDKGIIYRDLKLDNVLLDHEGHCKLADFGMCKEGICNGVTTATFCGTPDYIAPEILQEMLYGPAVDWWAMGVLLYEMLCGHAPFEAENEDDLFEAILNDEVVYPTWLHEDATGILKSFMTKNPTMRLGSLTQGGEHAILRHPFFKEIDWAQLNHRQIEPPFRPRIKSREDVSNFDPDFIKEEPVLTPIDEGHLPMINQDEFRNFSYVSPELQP
From the text: as §1

A further series deals with PKC-θ (Homo sapiens, UniProt Q04759). Description: Z'-LYTE kinase activity assay. The series is classed as biochemical. The settings on record: ATP at Kmapp, 2 μM peptide substrate; read-out: IC50 for novel PKC isoforms, PKC-θ.
PKC-θ, sequence (Q04759 whole entry, canonical isoform): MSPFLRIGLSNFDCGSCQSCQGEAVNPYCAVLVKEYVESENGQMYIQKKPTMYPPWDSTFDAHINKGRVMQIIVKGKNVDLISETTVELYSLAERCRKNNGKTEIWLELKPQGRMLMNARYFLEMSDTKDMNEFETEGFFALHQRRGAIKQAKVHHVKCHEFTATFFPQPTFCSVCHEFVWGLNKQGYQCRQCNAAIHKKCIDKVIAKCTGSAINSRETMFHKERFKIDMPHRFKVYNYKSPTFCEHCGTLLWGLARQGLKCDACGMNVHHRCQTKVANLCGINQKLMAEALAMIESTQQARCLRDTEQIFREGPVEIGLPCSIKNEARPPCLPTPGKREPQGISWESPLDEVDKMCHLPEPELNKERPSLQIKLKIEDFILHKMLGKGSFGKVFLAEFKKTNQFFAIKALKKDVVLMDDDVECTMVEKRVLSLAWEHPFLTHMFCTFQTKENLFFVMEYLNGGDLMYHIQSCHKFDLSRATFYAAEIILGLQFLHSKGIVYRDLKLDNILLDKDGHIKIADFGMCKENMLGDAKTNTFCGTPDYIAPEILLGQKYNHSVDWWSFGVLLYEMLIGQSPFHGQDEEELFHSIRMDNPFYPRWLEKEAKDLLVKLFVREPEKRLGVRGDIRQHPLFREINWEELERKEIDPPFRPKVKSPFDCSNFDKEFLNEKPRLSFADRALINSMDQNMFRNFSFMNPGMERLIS
From the text: as §1

For series [3], the system named is classical and novel PKC isoforms. The series can be described thus: Estimated PKC inhibition in cell culture from Z'-LYTE IC50 and free fraction. As to conditions: 5 µM, 46% free in cell culture media. The series is classed as biochemical.
From the text: as §1

The nature of series [4]: Free fraction in cell culture media. Format: in vitro ADME.
The subject of series [5] is latent HIV in total CD4+ T cells. The series can be described thus: microbe, parasite or virus in culture. The series is classed as cell-based, HIV-1. The settings on record: inhibitor 5 μM with DMSO, no agonist. As for the experimental part:
Peripheral blood mononuclear cells and CD4^+ T cells used for evaluating PKC agonist and inhibitor molecules were isolated from leukopaks of selected participants as described previously. Isolated CD4^+ T cells (5×10^6 cells/well) were added to 24-well tissue culture plates in 2.5 mL of RPMI medium containing 100 nM each of elvitegravir and efavirenz. Cells were stimulated with DMSO (vehicle control) or the indicated concentrations of PKC agonist molecules. Cells were pretreated with PKC isoform inhibitors (Selleck Chemicals) for 1 hour before addition of PKC agonist at indicated concentrations and maintained at 37 °C, 5% CO2 for 3 days. Cell supernatants from each well were analyzed using the Cobas […] system for quantification of HIV-1 RNA using the HIV-1 test v2.0 kit (Roche Diagnostics).

As to `CCC/C=C/C=C/C(=O)O[C@H]1/C(=C/C(=O)OC)C[C@H]2C[C@H]([C@@H](C)O)OC(=O)C[C@H](O)C[C@@H]3C[C@H](OC(C)=O)C(C)(C)[C@](O)(C[C@@H]4C/C(=C/C(=O)OC)C[C@H](/C=C/C(C)(C)[C@]1(O)O2)O4)O3` [Bryostatin, reference compound], the “CD62P EC50/CD69 EC50 ratio Geomean” value in [1] is reported as 0.9. Besides, the dose-limiting toxicity entry in series [2] is “myalgia”.

As to `CN(C)CCCn1cc(C2=C(c3c[nH]c4ccccc34)C(=O)NC2=O)c2ccccc21` [Gӧ-6850], the IC50 – broadly, the point on the concentration scale where inhibition reaches its midpoint – on PKC-α was 2.53 nM; on PKC-β1, 0.457 nM; at PKC-β2, 0.331 nM; on PKC-γ it was 2.18 nM; at PKC-δ, 9.63 nM; on PKC-ε (ATP at Kmapp, 2 μM peptide substrate, read-out: IC50 for novel PKC isoforms, PKC-ε), 67.6 nM. For the same molecule, the figures for the IC50 on PKC-η and at PKC-θ were 11.3 nM and 3 nM, respectively. In addition, the inhibition (usually the share of the control response that was lost under treatment) at 5 µM on PKC-ε (5 µM, 46% free in cell culture media, read-out: estimated inhibition of PKC-ε) is 70%. Also, the “estimated inhibition of all classical and novel isoforms, except PKC-ε” value in series [3] is given as over 90%. In addition, in [4], the “free in cell culture media” value is reported as 46%. Besides, the “HIV RNA Fold∆ over DMSO, Geomean” value in series [5] was 1.2 fold.
